Experimental data: PubChem BioAssay AID1259408 (Genetic Toxicology Data Bank (GENE-TOX), 2018)
Activity calls are given as the source filed them. No rule for the calls is given here.

System: GENE-TOX genotoxicity assays, various organisms and cells
Assay: GENE-TOX mutagenicity studies
Details: for call: Assay Type: In vivo carcinogenicity studies
[1] = Species/Cell Type: Nonhuman, Assay Type: Sister-chromatid exchange (SCE) in vitro, Assay Code: SC2+D, Dose Response: With dose response, Evaluation Type: Evaluation B (Post-1980)
[2] = Species/Cell Type: Salmonella typhimurium (one or more of the five standard strains: TA98, TA100, TA1535, TA1537, and TA1538), Assay Type: Histidine reverse gene mutation, Ames assay, Assay Code: SAL+, Evaluation Type: Evaluation A (Pre-1980)
[3] = Species/Cell Type: Bacillus subtilis (H17 vs M45), Assay Type: Rec-assay, spot test, DNA effects (bacterial DNA repair), Assay Code: REW+, Evaluation Type: Evaluation A (Pre-1980)
[4] = Species/Cell Type: Escherichia coli polA (W3119 vs P3478), Assay Type: Rec-assay, DNA effects (bacterial DNA repair), Assay Code: RE1-, Evaluation Type: Evaluation A (Pre-1980)
[5] = Species/Cell Type: Nonhuman, Assay Type: Sister-chromatid exchange (SCE) in vitro, Assay Code: SC2-, Evaluation Type: Evaluation A (Pre-1980)
[6] = Species/Cell Type: Saccharomyces cerevisiae, Assay Type: Mitotic recombination or gene conversion, Assay Code: YEH-, Evaluation Type: Evaluation A (Pre-1980)
[7] = Species/Cell Type: Nonhuman, Assay Code: CCG+, Evaluation Type: Evaluation A (Pre-1980)
[8] = Species/Cell Type: Salmonella typhimurium (one or more of the five standard strains: TA98, TA100, TA1535, TA1537, and TA1538), Assay Type: Histidine reverse gene mutation, Ames assay, Assay Code: SAL+*, Activation: With metabolic activation, Evaluation Type: Evaluation A (Pre-1980)
[9] = Species/Cell Type: Mammalian polychromatic erythrocytes, Assay Type: Micronucleus test, chromosome aberrations, Assay Code: MNTT, Evaluation Type: Evaluation B (Post-1980)
[10] = Species/Cell Type: Drosophila melanogaster, Assay Type: Sex-linked recessive lethal gene mutation, Assay Code: SRLT, Evaluation Type: Evaluation A (Pre-1980)
[11] = Species/Cell Type: Rodents, Sex: Male, Assay Type: Dominant lethal test, Assay Code: DLT-, Evaluation Type: Evaluation A (Pre-1980)
[12] = Species/Cell Type: Human, Assay Type: Sister-chromatid exchange (SCE) in vitro, Assay Code: SC1T, Evaluation Type: Evaluation B (Post-1980)
[13] = Species/Cell Type: Drosophila melanogaster, Assay Type: Sex-linked recessive lethal gene mutation, Assay Code: SRL+, Evaluation Type: Evaluation A (Pre-1980)

SMILES: Cn1cnc2c1c(=O)[nH]c(=O)n2C
- mutagenic call (Species/Cell Type: Allium cepa, Assay Type: Chromosome aberrations, Assay Code: ALC-, Evaluation Type: Evaluation A (Pre-1980)): inactive; negative
- mutagenic call (Species/Cell Type: Human lymphocytes, Assay Type: Sister-chromatid exchange (SCE) in vitro, Assay Code: SCL+, Evaluation Type: Evaluation B (Post-1980)): active; positive
- mutagenic call (Species/Cell Type: Human, Assay Type: Sister-chromatid exchange (SCE) in vitro, Assay Code: SC1+, Evaluation Type: Evaluation B (Post-1980)): active; positive
- mutagenic call (Species/Cell Type: Mammalian polychromatic erythrocytes, Assay Type: Micronucleus test, chromosome aberrations, Assay Code: MNT+U, Dose Response: Unconfirmed positive response, Evaluation Type: Evaluation B (Post-1980)): active; positive
- mutagenic call [1]: active; positive
- mutagenic call (Species/Cell Type: Nonhuman, Sex: Female, Assay Type: Sister-chromatid exchange (SCE) in vivo, Assay Code: SC3+DF, Dose Response: With dose response, Evaluation Type: Evaluation B (Post-1980)): active; positive
- mutagenic call (Species/Cell Type: Nonhuman, Sex: Male, Assay Type: Sister-chromatid exchange (SCE) in vivo, Assay Code: SC3+DM, Dose Response: With dose response, Evaluation Type: Evaluation B (Post-1980)): active; positive

SMILES: Cc1ccc(S(=O)(=O)N(C)N=O)cc1
- mutagenic call (Species/Cell Type: Arabidopsis species, Assay Type: Gene mutation, Assay Code: ARM+, Evaluation Type: Evaluation A (Pre-1980)): active; positive

SMILES: BrCc1c2ccccc2cc2ccccc12
- mutagenic call [2]: active; positive

SMILES: [O-][n+]1ccccc1
- mutagenic call [3]: active; positive
- mutagenic call [4]: inactive; negative

SMILES: O=C1CCCCCO1
- mutagenic call (Species/Cell Type: Escherichia coli polA (W3110 vs P3478), Assay Type: Rec-assay, DNA effects (bacterial DNA repair), Assay Code: RE2-, Evaluation Type: Evaluation A (Pre-1980)): inactive; negative
- mutagenic call [4]: inactive; negative
- mutagenic call (Species/Cell Type: Mouse lymphoma (L5178Y) cells, Assay Type: Forward gene mutation at the thymidine kinase (TK) locus, chromosome aberrations, Assay Code: L51-, Evaluation Type: Evaluation A (Pre-1980)): inactive; negative
- mutagenic call [5]: inactive; negative
- mutagenic call [6]: inactive; negative
- mutagenic call (Species/Cell Type: Salmonella typhimurium (one or more of the five standard strains: TA98, TA100, TA1535, TA1537, and TA1538), Assay Type: Histidine reverse gene mutation, Ames assay, Assay Code: SAL-, Evaluation Type: Evaluation A (Pre-1980)): inactive; negative
- mutagenic call (Species/Cell Type: Salmonella typhimurium, Assay Type: Forward and reverse gene mutation, host-mediated assay, Assay Code: HMA-, Evaluation Type: Evaluation A (Pre-1980)): inactive; negative
- mutagenic call (Species/Cell Type: Syrian hamster embryo (SHE) cells, Assay Type: Cell transformation, clonal assay, Assay Code: CTC-, Evaluation Type: Evaluation A (Pre-1980)): inactive; negative

SMILES: N#Cc1cccc2ccccc12
- mutagenic call (Species/Cell Type: Allium cepa, Assay Type: Chromosome aberrations, Assay Code: ALC+D, Dose Response: With dose response, Evaluation Type: Evaluation A (Pre-1980)): active; positive

SMILES: c1ccc2c(c1)ccc1nc3ccc4ccccc4c3cc12
- mutagenic call (Species/Cell Type: Fischer rat embryo (RLV/1706) cells, Assay Type: Cell transformation, viral enhanced, Assay Code: CTR+, Evaluation Type: Evaluation A (Pre-1980)): active; positive
- call [7]: active; positive
- mutagenic call [8]: active; positive

SMILES: CC(C)NCC(O)COc1ccc(CC(N)=O)cc1 (stereo unspecified)
- mutagenic call [9]: no conclusion

SMILES: Cc1c(N(C)C)c(=O)n(-c2ccccc2)n1C
- mutagenic call [5]: inactive; negative

SMILES: Oc1cc2c3ccccc3cc3ccc4cccc1c4c32
- mutagenic call (Species/Cell Type: Chinese hamster lung (V79) cells, Assay Type: Forward gene mutation at the HPRT or ouabain locus, Assay Code: V79-, Evaluation Type: Evaluation A (Pre-1980)): inactive; negative
- call (Species/Cell Type: Nonhuman, Assay Code: CCGT, Evaluation Type: Evaluation A (Pre-1980)): no conclusion
- mutagenic call [2]: active; positive

SMILES: O=C1NC(=O)C(c2ccc(O)cc2)(c2ccc(O)cc2)N1
- mutagenic call [9]: no conclusion

SMILES: c1ccc2c(c1)Nc1ccccc1S2
- mutagenic call (Species/Cell Type: Syrian hamster embryo (SA7/SHE) cells, Assay Type: Cell transformation, viral enhanced, Assay Code: CT7+, Evaluation Type: Evaluation A (Pre-1980)): active; positive

SMILES: C=CN(CC)N=O
- mutagenic call (Species/Cell Type: Arabidopsis species, Assay Type: Gene mutation, Assay Code: ARM+D, Dose Response: With dose response, Evaluation Type: Evaluation A (Pre-1980)): active; positive

SMILES: O=CNNc1nc(-c2ccco2)cs1
- mutagenic call (Species/Cell Type: Escherichia coli WP2, Assay Type: Tryptophan reverse gene mutation, Assay Code: WP2-, Evaluation Type: Evaluation A (Pre-1980)): inactive; negative
- mutagenic call (Species/Cell Type: Escherichia coli WP2 UVRA, Assay Type: Tryptophan reverse gene mutation, Assay Code: WPU-, Evaluation Type: Evaluation A (Pre-1980)): inactive; negative

SMILES: O=[Se](O)O
- mutagenic call [3]: active; positive
- mutagenic call (Species/Cell Type: Bacillus subtilis (H17 vs M45), Assay Type: Rec-assay, spot test, DNA effects (bacterial DNA repair), Assay Code: REW-, Evaluation Type: Evaluation A (Pre-1980)): inactive; negative
- mutagenic call (Species/Cell Type: Human lymphocytes, Assay Type: Sister-chromatid exchange (SCE) in vitro, Assay Code: SCL+D, Dose Response: With dose response, Evaluation Type: Evaluation A (Pre-1980)): active; positive
- mutagenic call (Species/Cell Type: Human lymphocytes, Assay Type: Sister-chromatid exchange (SCE) in vivo, Assay Code: SCY+, Evaluation Type: Evaluation B (Post-1980)): active; positive
- mutagenic call (Species/Cell Type: Human, Assay Type: Sister-chromatid exchange (SCE) in vitro, Assay Code: SC1+D, Dose Response: With dose response, Evaluation Type: Evaluation A (Pre-1980)): active; positive
- mutagenic call [1]: active; positive
- mutagenic call (Species/Cell Type: Nonhuman, Assay Type: Sister-chromatid exchange (SCE) in vivo, Assay Code: SC3+D, Dose Response: With dose response, Evaluation Type: Evaluation B (Post-1980)): active; positive
- mutagenic call [2]: active; positive

SMILES: O=NN(CCO)CCCCO
- mutagenic call [8]: active; positive

SMILES: [Be]
- call [7]: active; positive

SMILES: O=c1ccn([C@H]2C[C@H](O)[C@@H](CO)O2)c(=O)[nH]1
- mutagenic call [10]: no conclusion

SMILES: ClC1=C(Cl)[C@]2(Cl)[C@@H]3[C@@H](Cl)[C@H]4O[C@H]4[C@@H]3[C@@]1(Cl)C2(Cl)Cl
- mutagenic call [10]: no conclusion
- mutagenic call [11]: inactive; negative
- mutagenic call (Species/Cell Type: Salmonella typhimurium (one or more of the five standard strains: TA98, TA100, TA1535, TA1537, and TA1538), Assay Type: Histidine reverse gene mutation, Ames assay, Assay Code: SALT, Evaluation Type: Evaluation A (Pre-1980)): no conclusion

SMILES: C/C=C1/C[C@@H](C)[C@@](C)(O)C(=O)OC/C2=C/CN(C)CC[C@@H](OC1=O)C2=O
- mutagenic call [1]: active; positive

SMILES: Clc1ccc(Oc2cc(Cl)c(Cl)cc2Cl)cc1
- mutagenic call (Species/Cell Type: Saccharomyces cerevisiae, Assay Type: Forward gene mutation, Assay Code: YEF-, Evaluation Type: Evaluation A (Pre-1980)): inactive; negative
- mutagenic call (Species/Cell Type: Saccharomyces cerevisiae, Assay Type: Mitotic recombination or gene conversion, Assay Code: YEC-, Evaluation Type: Evaluation A (Pre-1980)): inactive; negative
- mutagenic call [6]: inactive; negative

SMILES: CC(=O)OC(c1ccccc1)N(C)N=O (stereo unspecified)
- mutagenic call [2]: active; positive

SMILES: CC(C)C[C@@H](N)[C@H](O)C(=O)N[C@H](C(=O)N[C@H](C(=O)N[C@@H](CC(=O)O)C(=O)O)C(C)C)C(C)C
- mutagenic call [12]: no conclusion

SMILES: Cc1c(C)c2c(c(C)c1O)CC[C@@](C)(CCC[C@H](C)CCC[C@H](C)CCCC(C)C)O2
- mutagenic call (Species/Cell Type: Human lymphocytes, Assay Type: Sister-chromatid exchange (SCE) in vitro, Assay Code: SCLT, Evaluation Type: Evaluation B (Post-1980)): no conclusion
- mutagenic call [12]: no conclusion

SMILES: COc1ccc(C[C@H](N)C(=O)N[C@H]2[C@@H](O)[C@H](n3cnc4c(N(C)C)ncnc43)O[C@@H]2CO)cc1
- mutagenic call (Species/Cell Type: Escherichia coli polA (W3110 vs P3478), Assay Type: Rec-assay, DNA effects (bacterial DNA repair), Assay Code: RE2+, Evaluation Type: Evaluation A (Pre-1980)): active; positive
- mutagenic call [4]: inactive; negative
- mutagenic call (Species/Cell Type: Glycine max (soybean), Assay Type: Gene mutation, Assay Code: GLMT, Evaluation Type: Evaluation A (Pre-1980)): no conclusion
- mutagenic call [11]: inactive; negative

SMILES: CCCCCCCCCCCCCCCCCCN(CCO)CCCN(CCO)CCO
- mutagenic call [9]: no conclusion

SMILES: Cc1ccc2ccc3c4ccccc4c(C)c4ccc1c2c43
- mutagenic call [13]: active; positive

SMILES: CC1CCCN(N=O)C1 (stereo unspecified)
- mutagenic call [13]: active; positive
- call (Species/Cell Type: Nonhuman, Assay Code: CCG+L, Evaluation Type: Evaluation A (Pre-1980)): active; positive
- mutagenic call (Species/Cell Type: Saccharomyces cerevisiae, Assay Type: Forward gene mutation, Assay Code: YEF+*, Activation: With metabolic activation, Evaluation Type: Evaluation A (Pre-1980)): active; positive
- mutagenic call (Species/Cell Type: Saccharomyces cerevisiae, Assay Type: Reverse gene mutation, Assay Code: YER+*, Activation: With metabolic activation, Evaluation Type: Evaluation A (Pre-1980)): active; positive
- mutagenic call [8]: active; positive
